The values that follow come from patent US20220331357A1, “COMPOSITIONS AND METHODS FOR THE PREVENTION AND TREATMENT OF PANCREATITIS” (Duke University, priority 2019, published 2022).

Read-outs that look alike come from different tables or passages of the source.

The test system of data set [1] is pancreatic acini from C57BL/6J mice. It is filed as cell-based. Conditions: 50 mM ethanol. As for the experimental part: In order to determine the effect of ethanol exposure and phosphate levels on acinar cell function, studies were conducted in vitro. Pancreata was harvested from ND-fed and LPD-fed C57BL/6J mice and isolated acinar cells using phosphate-free buffer solutions. Acinar cell function was assessed at various concentrations of ethanol (0-50 mM).
Next, it was investigated as to whether phosphate supplementation could preserve pancreatic acinar cell function. Pancreatic acini from LPD-fed mice were isolated in phosphate-free buffer and treated with 50 mM ethanol and 0-5 mM Na2HPO4.
To further explore the mechanism underlying the effect of phosphate on ethanol-induced acinar cell dysfunction, cellular ATP content and mitochondrial function was investigated.
In order to determine if phosphate sensitizes mitochondria to the effects of alcohol, we measured TMRE fluorescence intensity, a measure of mitochondrial membrane potential that indicates normal mitochondrial function.
Pancreatic acini from LPD-fed mice were again isolated in phosphate-free buffer and treated with 50 mM ethanol and 0-5 mM Na2HPO4.

For data set [2], the system named is isolated mouse pancreatic acini. The data set is described as follows: Caerulein-induced injury in isolated pancreatic acini. It is filed as cell-based. Conditions: for caerulein-induced damage (release of trypsin, IL-1β and LDH): 1, 5 or 10 mM sodium phosphate, pH 7.4, caerulein 10 nM for 30 minutes. The source says:
To evaluate the effects of phosphate on acinar cell function pancreatic acini in vitro were examined High concentrations of caerulein in vitro induce pancreatic injury similar to the effects observed in vivo and this method has been used to study direct effects on pancreatic acinar cells. Specifically, caerulein causes pancreatitis by hyperstimulating the acinar cells through the CCK1 receptor. In isolated pancreatic acini, caerulein causes trypsin activation, generation of the proinflammatory cytokine cytosolic […], and cell necrosis as manifest by LDH release. Each of these pathological results is seen with caerulein hyperstimulation in vivo.
It was observed that phosphate supplementation, independent of its buffering effects, reduced caerulein-induced LDH release, a marker of cell damage (FIG. 4). In addition, it was sought to determine if lack of ATP contributes to pancreatitis and whether the protective effects of phosphate are through restoration of intracellular ATP levels. […] Isolated mouse pancreatic acini were treated with caerulein in buffer containing Na2HPO4 concentrations of 1-10 mM. Supernatant LDH was measured by commercial LDH assay. Cytosolic ATP levels were measured using a commercially available fluorometric assay. *P<0.05, **<0.01, ***<0.001.
All solutions were adjusted to pH 7.4. A supramaximal concentration of caerulein (10 nM) was added for 30 minutes as indicated after which media were analyzed for release of trypsin, IL-1β and LDH. (*P<0.05, **P<0.01, ***P<0.001).
Mitochondrial membrane potential was measured in isolated pancreatic acini using tetramethylrhodamine ethyl ester (TMRE) fluorescence.
Specifically, isolated pancreatic acini were loaded with the mitochondrial fluorescent dye TMRE and incubated in phosphate-free buffer with a supramaximal concentration of caerulein (10 nM). TMRE fluorescence and intracellular ATP levels were measure after 30 minutes. *P<0.05, ****P<0.0001.
Isolated pancreatic acini loaded with TMRE were incubated in buffer with 0 or 5 mM phosphate (left panel). Effects of increasing phosphate concentrations on ATP production are shown in the right panel. *P<0.05, **P<0.01, ****P<0.0001. These findings illustrate the requirement for Pi in maintaining and restoring mitochondrial function and ATP synthesis under the stress of caerulein hyperstimulation.

Data set [3] has as its system pressure-induced pancreatitis. The data set is described as follows: ERCP pressure-induced pancreatitis, nicotinic agonists. It is filed as in vivo. An excerpt: GTS-21 (DMXBA) is a derivative of the natural product anabaseine that acts as a partial agonist at neural nicotinic acetylcholine receptors. GTS-21 is 3-2,4-dimethoxybenzylidene anabaseine.
For data set [4], the system named is ERCP pancreatitis in mice. The data set is described as follows: ERCP pancreatitis mouse model (retrograde pancreatic duct infusion). It is filed as in vivo. Conditions: mice on low phosphate diet; 200 μg/g intraperitoneal 1 and 4 hours after induction; 24 hours.
Text: For this study, a mouse model of this form of pancreatitis was employed.
Data set [5] concerns ethanol-induced pancreatitis in mice. The source says: These findings raise the question of whether phosphate deficiency contributes to the progression of pancreatitis. This may be particularly relevant to alcohol-induced pancreatitis, given that alcoholic patients are susceptible to hypophosphatemia due to nutritional deficiencies and the effects of alcohol ingestion on phosphate absorption. Therefore, it was hypothesized that low phosphate levels may be predispose to alcohol-induced pancreatic injury. To test this hypothesis, we placed mice on a low phosphate diet and determined their susceptibility to ethanol. Animals were placed on a chow diet containing low amounts of phosphate (Pi) for three weeks. The low phosphate diet (Envigo #TD.140659) was comprised of 0.02% Pi compared to normal chow diet which contained 1% Pi. Serum levels of phosphate declined in mice on a low phosphate diet from normal values of 2.2 mM to 1.4 mM (FIG. 12). In order to determine if the diet rendered mice more sensitive to ethanol, mice were administered ethanol by orogastric gavage at […] (30% ethanol at 10 mL/kg) daily for five days (Control mice were gavaged with water). Mice were euthanized 12 hours after the last dose of ethanol. The pancreatitis severity scoring system is a composite of edema, necrosis, inflammatory cell infiltration and hemorrhage severity as previously published. […]

The test system of data set [6] is caerulein-treated mice. As to the kind of experiment: Caerulein-induced pancreatitis in mice. It is filed as in vivo. Conditions: 250 μg/g Na2HPO4 1 hour after first of 6 hourly caerulein injections (50 ng/g); vs normal saline. The source says:
Caerulein-induced pancreatitis in mice is an established model of acute experimental pancreatitis. Hyperstimulation of the pancreas by cholecystokinin or its analogue caerulein is a commonly used model of experimental acute pancreatitis in rodents. Caerulein produces mild to moderate, non-fatal pancreatitis that resolves spontaneously.
As shown in FIGS. 3A-3C, phosphate supplementation reduced all parameters of pancreatitis following caerulein administration including serum amylase levels (FIG. 3A), pancreatic MPO levels (FIG. 3B) and pancreatic histology (FIG. 3C). Specifically, mice (C56BL/6 adult mice) were treated with 6 hourly injections of caerulein sulfate (50 ng/g) by intraperitoneal injection. Sodium phosphate (250 μg/g Na2HPO4) and normal saline (NS) were given 1 hour after the first injection. The study was terminated 1 hour after the last caerulein injection at which time, blood and pancreas tissue are collected for measurements of serum amylase, and pancreatic edema, MPO, and histological pancreatitis severity. Pancreatic myeloperoxidase (MPO) and serum amylase levels were measured by commercially available assays. **P<0.01 vs. normal saline in caerulein-treated mice.

Data set [7] deals with T1, Piezol (Mus musculus, UniProt E2JF22).
T1 construct: endogenous in cells; host or cells: isolated pancreatic acini / acinar cells (primary, mouse)
As to the kind of experiment: Yoda1 activation of Piezol in pancreatic acinar cells. It is filed as cell-based, mice. As to the method:
Pathological activation of Piezol leads to [Ca^2+]i overload, mitochondrial dysfunction, trypsinogen activation, and acinar cell necrosis. Moreover, Piezol activation explains how elevation of intrapancreatic duct pressure (e.g., ERCP or gallstone impaction) causes pancreatitis. Piezol can be activated by mechanical pushing or shear stress. A method for studying the effects of shear stress on isolated pancreatic acini in vitro was developed. Pancreatic acini are cultured on Matrigel and placed into a fluid flow chamber. Cells can be loaded with either the calcium sensitive dye, Calcium 6-QF (Molecular Devices), or the active trypsin enzyme substrate BZiPAR [rhodamine 110, bis(CBZ-L-isoleucyl-L-prolyl-L-arginine amide)] (10 μM) and imaged using a fluorescence microscope while fluid flow is regulated to control the level of shear stress.
As shown in FIG. 11(A)-(C), subjecting acinar cells to fluid shear stress at 12 dyne/cm^2 produced a prolonged increase in [Ca^2+]i similar to that seen with supramaximal, pathological concentrations of caerulein and was sufficient to cause trypsin activation. Shear pressure also led to mitochondrial membrane depolarization indicating mitochondrial dysfunction. These effects are specific for Piezol since changes were not observed in Piezol1^aci knockout mice. Yoda1 is a selective agonist for Piezol and can be used to simulate pressure by chemically activating Piezol. […] In order to determine if phosphate might protect against pressure-induced pancreatitis, we observed that phosphate supplementation reduced Yoda1-stimulated elevations in [Ca^2+]i and LDH release.

Where [8] appears, read: LPD-derived acini, phosphate-free buffer.
[9] abbreviates: ERCP pressure-induced pancreatic inflammation.
[10] abbreviates: caerulein 10 nM, phosphate-free buffer, 30 minutes.

T1 sequence (E2JF22 whole entry): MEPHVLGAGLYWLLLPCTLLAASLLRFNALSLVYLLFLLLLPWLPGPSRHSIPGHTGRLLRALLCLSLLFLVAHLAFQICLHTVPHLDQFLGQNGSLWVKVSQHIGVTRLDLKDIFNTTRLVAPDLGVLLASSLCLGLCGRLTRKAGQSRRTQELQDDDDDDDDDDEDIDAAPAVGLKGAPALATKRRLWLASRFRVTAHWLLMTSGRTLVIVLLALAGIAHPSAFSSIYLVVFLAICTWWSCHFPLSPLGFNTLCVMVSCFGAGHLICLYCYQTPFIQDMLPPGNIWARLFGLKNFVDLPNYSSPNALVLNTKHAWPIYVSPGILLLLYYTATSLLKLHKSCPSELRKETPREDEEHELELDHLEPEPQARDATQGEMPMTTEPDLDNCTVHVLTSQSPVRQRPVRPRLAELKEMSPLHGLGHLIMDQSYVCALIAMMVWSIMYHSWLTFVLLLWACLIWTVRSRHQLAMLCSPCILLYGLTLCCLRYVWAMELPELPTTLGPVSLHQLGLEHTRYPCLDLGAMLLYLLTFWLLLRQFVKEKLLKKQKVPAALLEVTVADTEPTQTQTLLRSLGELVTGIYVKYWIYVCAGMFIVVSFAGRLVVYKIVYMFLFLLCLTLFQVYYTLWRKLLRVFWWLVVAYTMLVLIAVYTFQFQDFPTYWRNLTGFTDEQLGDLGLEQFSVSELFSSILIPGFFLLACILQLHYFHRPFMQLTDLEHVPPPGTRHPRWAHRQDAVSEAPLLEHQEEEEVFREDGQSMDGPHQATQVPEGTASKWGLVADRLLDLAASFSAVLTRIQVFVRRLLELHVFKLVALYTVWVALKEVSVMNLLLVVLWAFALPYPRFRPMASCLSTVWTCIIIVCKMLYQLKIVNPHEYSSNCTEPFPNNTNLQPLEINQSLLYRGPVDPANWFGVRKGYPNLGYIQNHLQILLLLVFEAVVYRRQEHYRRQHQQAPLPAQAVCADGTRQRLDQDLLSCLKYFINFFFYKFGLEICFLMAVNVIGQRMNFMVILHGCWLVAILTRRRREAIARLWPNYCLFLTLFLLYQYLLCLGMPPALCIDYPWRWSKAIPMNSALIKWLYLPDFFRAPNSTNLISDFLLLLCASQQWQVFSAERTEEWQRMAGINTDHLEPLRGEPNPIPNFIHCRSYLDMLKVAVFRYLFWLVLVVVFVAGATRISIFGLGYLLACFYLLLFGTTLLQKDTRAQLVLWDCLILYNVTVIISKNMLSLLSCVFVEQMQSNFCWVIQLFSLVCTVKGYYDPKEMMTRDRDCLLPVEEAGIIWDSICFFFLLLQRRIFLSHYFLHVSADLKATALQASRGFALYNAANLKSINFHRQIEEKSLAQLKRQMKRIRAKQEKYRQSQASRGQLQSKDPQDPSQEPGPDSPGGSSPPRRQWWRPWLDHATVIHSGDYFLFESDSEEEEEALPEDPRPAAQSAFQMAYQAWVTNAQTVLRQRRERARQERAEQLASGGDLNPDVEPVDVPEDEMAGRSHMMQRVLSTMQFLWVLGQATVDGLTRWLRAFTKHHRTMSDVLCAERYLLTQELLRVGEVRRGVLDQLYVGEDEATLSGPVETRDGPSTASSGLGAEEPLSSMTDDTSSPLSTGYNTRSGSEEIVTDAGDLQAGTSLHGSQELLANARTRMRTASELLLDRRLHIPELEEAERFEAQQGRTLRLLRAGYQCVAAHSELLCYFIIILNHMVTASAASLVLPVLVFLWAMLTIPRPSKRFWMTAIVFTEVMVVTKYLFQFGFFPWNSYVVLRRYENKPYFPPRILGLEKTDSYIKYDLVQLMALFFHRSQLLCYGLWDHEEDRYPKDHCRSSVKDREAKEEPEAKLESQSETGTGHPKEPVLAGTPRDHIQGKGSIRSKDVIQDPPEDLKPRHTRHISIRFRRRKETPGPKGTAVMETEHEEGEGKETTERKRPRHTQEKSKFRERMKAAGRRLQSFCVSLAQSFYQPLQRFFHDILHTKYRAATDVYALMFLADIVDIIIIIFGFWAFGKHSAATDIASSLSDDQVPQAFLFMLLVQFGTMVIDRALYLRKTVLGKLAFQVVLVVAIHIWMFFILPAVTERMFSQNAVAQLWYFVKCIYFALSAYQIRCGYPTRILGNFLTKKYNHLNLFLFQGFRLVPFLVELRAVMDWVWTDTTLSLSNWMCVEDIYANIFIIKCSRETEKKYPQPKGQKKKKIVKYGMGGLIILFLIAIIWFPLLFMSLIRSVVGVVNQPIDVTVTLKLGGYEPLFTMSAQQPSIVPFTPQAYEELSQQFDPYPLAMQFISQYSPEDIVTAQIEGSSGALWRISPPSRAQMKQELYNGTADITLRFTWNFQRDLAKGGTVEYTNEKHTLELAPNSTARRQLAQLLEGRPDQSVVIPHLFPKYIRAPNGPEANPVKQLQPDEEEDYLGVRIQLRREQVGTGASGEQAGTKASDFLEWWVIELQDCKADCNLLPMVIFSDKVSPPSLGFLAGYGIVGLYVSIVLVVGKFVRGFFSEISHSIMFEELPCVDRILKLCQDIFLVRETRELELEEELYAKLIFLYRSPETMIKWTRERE

On to `CCO` [ethanol], for which the TMRE fluorescence intensity entry in data set [1] (LPD acini) was “significantly decreased”. The “total cellular ATP levels” value is “significantly decreased” in data set [1] (LPD-derived acini) and “not observed” in data set [1] (ND-derived acini). In addition, the “Lactate dehydrogenase (LDH)” value in data set [1] (setting [8]) is “significantly increased”. The trypsin activity result in data set [1] (setting [8]) is on record as “significantly increased”. Also, the “LDH and trypsin activity” value in data set [1] (acini from mice on normal diet (ND)) is recorded as “not seen”.

In the case of `O=P([O-])(O)O.[Na+]` [NaH2PO4], the “caerulein-induced damage (release of trypsin, IL-1β and LDH)” value in data set [2] is listed as “protects”. Moreover, in data set [2] (caerulein hyperstimulation, 0 or 5 mM phosphate), the “mitochondrial function (TMRE fluorescence)” value is “dose-dependently restored”. The ATP synthesis result in data set [2] (caerulein hyperstimulation, increasing phosphate concentrations) is reported as “dose-dependently restored”.

With `COc1ccc(/C=C2\CCCN=C2c2cccnc2)c(OC)c1` [GTS-21, 3-2,4-dimethoxybenzylidene anabaseine], the “protection of the pancreas against pressure-induced pancreatitis” value in data set [3] (prior splenectomy) was “abolished”; in data set [3] (systemic administration), “significantly protected”. In addition, the “protection against pressure-induced acute pancreatitis” value in data set [3] (splenocytes depleted of T cells) is given as “do not protect”.

`O=P(O)(O)O` [sodium phosphate]: in data set [4], the “pancreatic injury (survival, pancreatic edema)” value was “protected”. Also, in data set [5] (sodium phosphate 50 mg/kg orogastric gavage daily for 5 days, ethanol 3 mg/kg daily for 5 days), the “mortality of ethanol-treated mice on the low phosphate diet” value was “significantly reduced”.

For `O=P([O-])([O-])O.[Na+].[Na+]` [Na2HPO4], in data set [6], the “pancreatic MPO levels” value was “reduced”, the pancreatic histology result was “reduced” and the serum amylase levels result is “reduced”. In data set [2] (buffer containing Na2HPO4 1-10 mM), the “caerulein-induced LDH release” value was “reduced”. Also, in data set [2] (caerulein-treated acini, Na2HPO4 1-10 mM), the “cytosolic ATP levels” value is recorded as “restored ATP levels in a dose-dependent fashion”. For the same compound, in data set [1] (LPD acini, 0-5 mM Na2HPO4), the ATP levels result is recorded as “significantly increased” and the TMRE fluorescence intensity entry was “markedly improved”. In data set [1] (LPD acini, 5 mM Na2HPO4), the LDH result is on record as “significantly decreased” and the trypsin activity entry is on record as “significantly decreased”.

As for `Clc1cccc(Cl)c1CSc1nnc(-c2cnccn2)s1` [Yoda1], in data set [7] (Yoda1 25 μM), the LDH release entry is reported as “increased” and the “[Ca2+]i” value was “caused an elevation”.

Turning to `CN1CCCC1c1cccnc1` (centres unmarked) [nicotine], in data set [3] (setting [9]), the histopathology result is recorded as “dose-dependently inhibits”, the “pancreatic MPO levels” value is given as “dose-dependently inhibits”, the pancreatic edema entry is on record as “dose-dependently inhibits” and the serum amylase entry is “dose-dependently inhibits”.

As to phosphate, the “caerulein-induced damage (release of trypsin, IL-1β and LDH)” value in data set [2] is on record as “improved”. Further, in data set [7] (phosphate supplementation), the “Yoda1-stimulated LDH release” value was “reduced” and the “Yoda1-stimulated elevations in [Ca2+]i” value was “reduced”. The ethanol-induced injury entry in data set [5] (mice on low phosphate diet, sodium phosphate 50 mg/kg gavage daily for 5 days) is on record as “protects”.

With caerulein, in data set [2] (setting [10]), the ATP production entry was “reduced ATP production” and the “mitochondrial membrane potential (TMRE fluorescence)” value is “caused mitochondrial depolarization”.
